Results published in a melting point compilation (Tetko et al.; mined from patent text by program, amines drawn as free bases though some values may be those of a salt).

First: Cn1ncnc1COc1nn2c(-c3ccccc3)nnc2cc1-c1ccc(Cl)s1
Second: Cn1nc(-c2nc(-n3cccc3)c(N)nc2-c2ccccc2)ccc1=O
The melting point of the first is higher: 244 to 247 °C for the first, 202 to 205 °C for the second.

First: OC(CNC1CCc2ccccc2C1)COc1cccc(C(F)(F)F)c1 (stereo not drawn)
Second: CN1C(=O)CCC2(C)c3ccc(Sc4nccc5ccccc45)cc3CCC12 (stereo not drawn)
The melting point of the first is lower: 84 to 89 °C for the first, 196 to 199 °C for the second.

First: COC(=O)c1nc2c(c(SC)nn2-c2ccccc2)c(N)c1C(=O)OC
Second: COc1nc2c(C)cccc2c2c1CCN2c1ccccc1C
The melting point of the first is higher: 120 to 122 °C for the first, 107 to 108 °C for the second.

Compared with `O=C(CNC(=O)OCc1ccc([N+](=O)[O-])cc1)Nc1ccc(C(=O)OCI)cc1`, `COC(=O)c1ccc(CN(OC)C(=O)C=C(O)C(=O)O)cc1` is lower in melting point: 162 to 164 °C for the first, 123 to 125 °C for the second.

First: CN(C)C=C1CN=C(c2ccccc2)c2cc(Cl)ccc2C1=O
Second: CN(C)Cc1nnc2n1-c1ccc(Cl)cc1N(c1ccccc1)C(=O)C2
The melting point of the first is lower: 179 to 180 °C for the first, 232 to 234 °C for the second.

First: CON=C(C1=Nc2ccc(Cl)cc2C(c2ccccc2F)=NC1)[N+](=O)[O-]
Second: Nc1ccc(F)cc1CS(=O)c1nc2ccccc2[nH]1 (stereo not drawn)
The melting point of the first is lower: 130 to 133 °C for the first, 184 to 185 °C for the second.

`CCN(CC)CCC1CCCN1CCNC(=O)N1c2ccccc2C(=O)Nc2cccnc21` (stereo not drawn) and `CCCCc1nn(-c2cc(C(=O)N(C)CCCC)ccc2Cl)c(=O)n1Cc1ccc(-c2ccccc2S(=O)(=O)NC(=O)c2ccccc2Cl)cc1` cannot be ordered by melting point: 127 to 128 °C for the first, greater than 90 °C for the second.

Compared with `O=C(c1ccc([N+](=O)[O-])cc1[N+](=O)[O-])N1CCOCC1`, `CCC(Oc1ccc(C2CCOCC2)cc1)C(=O)O` (stereo not drawn) is lower in melting point: 159 to 161 °C for the first, 127 °C for the second.

First: CC(=O)OCC(O)(CN(C)S(=O)(=O)c1cc(C)ccc1C)c1ccccc1 (stereo not drawn)
Second: CNC(=S)NS(=O)(=O)c1cc(CCNC(=O)/C=C/c2cccs2)ccc1OC
The melting point of the first is higher: 84 to 85 °C for the first, 74 to 77 °C for the second.

First: Cn1ncc(C(=O)c2ccc(S(C)(=O)=O)c(C3=NOCC3)c2Cl)c1O
Second: COC(=O)c1ccc2c(c1)Sc1ccc(C(C)N(O)C(N)=O)cc1CC2 (stereo not drawn)
The melting point of the first is higher: greater than 250 °C for the first, 167 to 169 °C for the second.

First: CCCCCCCCCCCCCCCCCCNC(=O)OCC(CNS(=O)(=O)CCCI)NC(=O)NC (stereo not drawn)
Second: CCCCn1c(=O)c2c(ncn2S(C)(=O)=O)n(CCCC)c1=O
The melting point of the first is lower: 87 to 89 °C for the first, 98 to 100 °C for the second.

First: OC1c2cc(OCc3ccc4ccccc4n3)ccc2OCCC1Oc1ccccc1 (stereo not drawn)
Second: c1ccc(-c2ccc3c(ccc4c5ccccc5[nH]c34)c2)cc1
The melting point of the first is lower: 128 to 129 °C for the first, 254 °C for the second.

First: O=C(OCc1ccccc1)N1CCc2c(sc3nc(CN4C(=O)CCC4=O)c(Cl)c(-c4ccc(OCC(F)(F)F)cc4)c23)C1
Second: Cc1cccc(NC(=O)Nc2c(-c3ccccc3)c3cc(Cl)ccc3c(=O)n2C)c1
The melting point of the first is lower: 190 to 191 °C for the first, greater than 300 °C for the second.

Compared with `CCOC(=O)C1=Cc2cc(C#C[Si](C)(C)C)ccc2NC1C(F)(F)F` (stereo not drawn), `CCC(Oc1cccc(C(F)(F)F)n1)C(=O)O` (stereo not drawn) is lower in melting point: 117 to 119 °C for the first, 91 °C for the second.

First: Oc1ccc(O)c2c1CCCC2
Second: O=c1[nH]c2ccc(Cl)cc2n1CC1CCCCC1
The melting point of the first is higher: 213 to 215 °C for the first, 62 °C for the second.

Compared with `O=C(O)c1cn(C2CC2)c2nc3cc(N4CCNC(c5ccco5)C4)c(F)cc3cc2c1=O` (racemic), `CC1=C(c2cccc(C(F)(F)F)c2)n2ncc3c(=O)nc(NC(C)C)n(c32)C1` is higher in melting point: 240 to 241 °C for the first, 284 to 286 °C for the second.

First: COc1cc(Nc2c(C#N)cnc3cc(I)sc23)c(Cl)cc1Cl
Second: CC1(C)CC(c2ccccn2)c2cc(C#N)ccc2O1 (stereo not drawn)
The melting point of the first is higher: 233 to 234 °C for the first, 114 to 115 °C for the second.

First: O=C(NCCCCC1CCSS1)NN1CCCCC1 (stereo not drawn)
Second: N=C(N)Nc1nc(CCCCNC(N)=N[N+](=O)[O-])cs1
The melting point of the first is lower: 67 to 69 °C for the first, 180 to 181 °C for the second.

First: CCOC(=O)[C@H]1C2C[C@@H](O)[C@](O)(C(=O)OCc3ccccc3)[C@@H]21 (stereo partly drawn)
Second: CSc1ccc(-c2nc(SC)c(C#N)c(=O)n2-c2ccc(Br)cc2)cc1
The melting point of the first is lower: 112 to 114 °C for the first, 213 to 215 °C for the second.
